The source of these data is US20230414628A1, “METHODS FOR TREATING DISEASES MEDIATED BY GLUTATHIONE PEROXIDASE 4” (priority 2022, published 2023).

Counter-ions that a name gives are not always drawn.

In general, EC50 refers to the concentration at which the effect is half-maximal.

The first experiment deals with RAG01 (derived from fibroblasts of a patient diagnosed with SSMD) fibroblasts. The experiment can be described thus: CellTiter-Glo concentration response in RAG01 fibroblasts. The format is cell-based, human. The conditions noted are these: Homo sapiens, Fibroblast; RAG01 cell line; 72 hours incubation; CellTiter-Glo; percentage effect normalized to vehicle control; 10-point CRC from 10 μM; read-out: EC50. On the procedure: Compounds described herein were tested in three cell lines, RAG01 (derived from fibroblasts of a patient diagnosed with SSMD) fibroblasts, RAG02 (derived from fibroblasts of the patient's parent), and GM09503 (from supplier Corriell) (derived from a healthy donor) to each generate 10-point concentration response curves (CRC). The three cell lines were each thawed seven (7) days prior to seeding. The RAG01 cells were thawed in a medium supplemented with a-tocopherol. Cells were passaged four (4) days prior to the seeding. The α-tocopherol was removed from the RAG01 cells. Cells were then seeded at 900 cells per well in 384-well plates. Two replicates were prepared for two independent (replicate) experiments. All plates were then incubated with compounds described herein for 72 hours, prior to CellTiter-Glo assay. […] The assay was run using the CellTiter-Glo (Promega) following manufacturer's guidelines and luminescent spectrophotometric reading on PHERAstar FSX (BMG Labtech). A 0.1% dimethylsulfoxide (DMSO) was used as a blank (vehicle control); and a 1 μM Ferrostatin-1 was used as a control (CTRL).
The raw data was analyzed using Activity Base® software. The compounds were evaluated by efficacy (percentage effect) normalized to the vehicle control. The percentage effect (PE) was determined from the signal increase in comparison to the vehicle control according to the formula below: […]
The percentage effect values were then plotted against log concentration of the drug to generate a concentration response curve. The curves were fitted using a four-parameter fit, and curve tops and hillslopes were fixed where required and justified.
A general note: ATP-based viability assays read luminescence as a measure of living cells.
With `CC1=C(C(=O)OC(C)C)C(c2cccc([N+](=O)[O-])c2)C(C(=O)OC2CN(C(c3ccccc3)c3ccccc3)C2)=C(N)N1` (centres unmarked) [compound 1, azelnidipine], the EC50 stood at 3120 nM. For `COC(=O)C1=C(C)NC(C)=C(C(=O)OCCN2CCN(C(c3ccccc3)c3ccccc3)CC2)C1c1cccc([N+](=O)[O-])c1` (centres unmarked) [compound 2, manidipine], the 50% effective concentration (EC50) came to 2900 nM. The same measure, in the same setting: then `Cc1c(-c2ccc(O)cc2)n(Cc2ccc(OCCN3CCCCCC3)cc2)c2ccc(O)cc12` [compound 3, bazedoxifene], with 240 nM; and `CN1CCN(c2ccc(C(=O)c3c(-c4ccc(O)cc4)sc4cc(O)ccc34)cc2)CC1` [compound 4, Y-134], with 430 nM; and `O=C(c1ccc(OCCN2CCCCC2)cc1)c1c(-c2ccc(O)cc2)sc2cc(O)ccc12` [compound 5, raloxifene], with 458 nM. Same read-out and setting: then `CCCCCS(=O)(=O)CCCCCCCCCCn1c(-c2ccc(O)cc2)c(C)c2cc(O)ccc21` [compound 6, ZK-164015], with 1630 nM; and `Brc1cc2c(cc1[C@@H]1Nc3ccccc3[C@@H]3C=CC[C@@H]31)OCO2` [compound 7, G-15], with 1660 nM. Same read-out and setting: then `CC(C)=CCc1c(O)cc(O)c2c(=O)c(O)c(-c3ccc(C(F)(F)F)cc3)oc12` [compound 8, SNG1153], with 5510 nM. For `COc1ccc(Nc2ccn(-c3ccccc3)n2)cc1` [compound 9, FPL 62064], the EC50 worked out at 53 nM. Still for that read-out and setting: then `O=C1c2ccccc2-n2c1nc1ccccc1c2=O` [compound 10, trypthanthrin], with 180 nM; and `C=CCc1ccc(O)c(-c2ccc(O)c(CC=C)c2)c1` [compound 12, honokiol], with 1210 nM. On the same count and under the same terms, next, `CC1(S(=O)(=O)O)CC(=O)c2ccccc2C1=O` (centres unmarked) [compound 13]: 1570 nM. Same read-out and setting: next, `COC1=C(OC)C(=O)C(CCCCCCCCCCO)=C(C)C1=O` [compound 14, idebenone]: 1600 nM.

On to `CC(c1cc2ccccc2s1)N(O)C(N)=O` (centres unmarked) [compound 15, Zileuton], for which the EC50 amounted to 1870 nM. Still for that read-out and setting: then `O=c1c(O)c(-c2ccc(O)cc2)oc2cc(O)cc(O)c12` [compound 16, kaempferol], with 3210 nM; and `CCNCc1cc(C(C)(C)C)c(O)c(C(C)(C)C)c1` [compound 17, LY 231617], with 7360 nM; and `CC(=O)O[C@]1(C(C)=O)CC[C@H]2[C@@H]3CCC4=CC(=O)CCC4=C3[C@@H](c3ccc(N(C)C)cc3)C[C@@]21C` [compound 18, ulipristal acetate], with 2340 nM. Still for that read-out and setting: then `C#C[C@]1(O)CC[C@H]2[C@@H]3CCc4cc(O)ccc4[C@H]3CC[C@@]21C` [compound 19, ethinyl estradiol], with 4480 nM. Same read-out and setting: then `CC#C[C@]1(O)CC[C@H]2[C@@H]3CCC4=CC(=O)CCC4=C3[C@@H](c3ccc(N(C)C)cc3)C[C@@]21C` [compound 20, Mifepristone], with 2280 nM; and `Oc1ccc(/C=C/c2cc(O)cc(O)c2)cc1` [compound 22, resveratrol], with 6810 nM. As for `COc1cc(/C=C/c2ccc(O)cc2)cc(OC)c1` [compound 23, pterostilbene], the half-maximal effective concentration (EC50) was found to be 1610 nM.

Turning to `CC(Cc1ccc(O)c(O)c1)C(C)Cc1ccc(O)c(O)c1` (centres unmarked) [compound 24, Nordihydroguaiaretic acid], the 50% effective concentration (EC50) was 2490 nM.

Take `COc1cc(C[C@H](C)[C@H](C)Cc2ccc3c(c2)OCO3)ccc1O` [compound 25, macelignan]: the concentration giving a half-maximal response (EC50) came out at 2860 nM. Regarding `CC(=O)Oc1c(C)cc(OCC(O)CNC(C)C)c(C)c1C` (centres unmarked) [compound 26, metipranolol], the 50% effective concentration (EC50) came out at 403 nM.

As for `CC(C)NCC(O)COc1cccc2[nH]c3ccccc3c12` (centres unmarked) [compound 27, carazolol], the EC50 was 3110 nM.

Take `COc1ccccc1OCCNCC(O)COc1cccc2[nH]c3ccccc3c12` (centres unmarked) [compound 28, carvedilol]: the EC50 came out at 4910 nM. The same measure, in the same setting: next, `CCc1cc2c(cc1CC)CC(NC[C@H](O)c1ccc(O)c3[nH]c(=O)ccc13)C2` [compound 29, indacaterol]: 1390 nM; `CC(=O)Oc1cc(C(C)C)c(OCCN(C)C)cc1C` [compound 30, Moxisylyte]: 739 nM; `Cc1cc(C(C)(C)C)c(O)c(C)c1CC1=NCCN1` [compound 31, oxymetazoline]: 1460 nM. `CN1CCN2c3c(cccc31)[C@@H]1CN(CCCC(=O)c3ccc(F)cc3)CC[C@@H]12` [compound 32, lumateperone]: the EC50 is 636 nM. For `Clc1ccc2c(c1)N=C(N1CCNCC1)c1ccccc1N2` [compound 34, desmethylclozapine], the concentration giving a half-maximal response (EC50) worked out at 2660 nM. The same measure, in the same setting: then `CC(C)(C)[C@@]1(O)CCN2C[C@@H]3c4ccccc4CCc4cccc(c43)[C@H]2C1` [compound 35, butaclamol], with 2570 nM; and `CN1CCc2cccc3c2[C@H]1Cc1ccc(O)c(O)c1-3` [compound 36, apomorphine], with 140 nM; and `Oc1cc2c(cc1O)C(c1ccccc1)CNCC2` (centres unmarked) [compound 38, SKF-38,393], with 4310 nM. Same read-out and setting: next, `CCCN(C/C=C/I)C1CCc2ccc(O)cc2C1` (centres unmarked) [compound 40, 7-hydroxy-PIPAT]: 2740 nM; `CCCN(CCc1cccs1)[C@H]1CCc2c(O)cccc2C1` [compound 41, rotigotine]: 3950 nM; `CCOC(=O)Nc1ccc2c(c1)N(C(=O)CCN(CC)CC)c1ccccc1S2` [compound 42, ethacizine]: 478 nM.

As to `CC(CN(C)C)CN1c2ccccc2Sc2ccc(C#N)cc21` (centres unmarked) [compound 43, cyamemazine], the concentration for a half-maximal effect (EC50) was 1390 nM. The same measure, in the same setting: next, `OCCN1CCN(CCCN2c3ccccc3Sc3ccc(Cl)cc32)CC1` [compound 44, perphenazine]: 1410 nM; `O=C(CN1CCN(Cc2ccc3c(c2)OCO3)CC1)N1c2ccccc2Sc2ccccc21` [compound 46, fenoverine]: 1500 nM. The same measure, in the same setting: then `CC(CN(C)C)CN1c2ccccc2Sc2ccccc21` (centres unmarked) [compound 47, trimeprazine], with 1670 nM; and `CN1CCCC(CN2c3ccccc3Sc3ccccc32)C1` (centres unmarked) [compound 48, mepazine], with 1840 nM. Same read-out and setting: then `COc1ccc2c(c1)N(C[C@H](C)CN(C)C)c1ccccc1S2` [compound 49, Levomepromazine], with 3210 nM. `COc1ccc2cccc(N3CCN(CCNC(=O)c4ccc(F)cc4)CC3)c2c1` [compound 50, S-14,506]: the EC50 turned out to be 928 nM. The same measure, in the same setting: next, `Cc1[nH]c2ccc(Cl)cc2c1C1=CCNCC1` [compound 51, EMD-386088]: 1350 nM. `CCCN(C/C=C/I)C1CCc2cccc(O)c2C1` (centres unmarked) [compound 52, 8-hydroxy-PIPAT]: the EC50 is 2380 nM.

Regarding `COc1ccc(CC2NCCc3c2[nH]c2ccc(C)cc32)c(Cl)c1OC` (centres unmarked) [compound 53, LY-266,097], the EC50 was 2710 nM. Same read-out and setting: then `Oc1ccc2c3c1OC1c4c(c5ccccc5n4Cc4ccccc4)C[C@@]4(O)C(C2)N(CC2CC2)CC[C@]314` (some centres unmarked) [compound 54, N-Benzylnaltrindole HCl], with 381 nM; and `Oc1ccc2c3c1O[C@H]1c4oc5ccccc5c4C[C@@]4(O)[C@@H](C2)N(CC2CC2)CC[C@]314` [compound 55, Naltriben], with 1320 nM. The same measure, in the same setting: then `C=C(C)CN1CC[C@]23c4c5ccc(O)c4OC2c2[nH]c4ccccc4c2C[C@@]3(O)[C@H]1C5` (some centres unmarked) [compound 56, SDM25N], with 1410 nM; and `Oc1ccc2c3c1O[C@H]1c4[nH]c5ccccc5c4C[C@@]4(O)[C@@H](C2)N(CC2CC2)CC[C@]314` [compound 57, Naltrindole], with 2410 nM; and `CC(C)(CO)Cc1cc(C(C)(C)C)c(O)c(C(C)(C)C)c1` [compound 58, 2,6-ditert-butyl-4-(3-hydroxy-2,2-dimethylpropyl)phenol], with 350 nM.

In the case of `CC(C)(C=O)Cc1cc(C(C)(C)C)c(O)c(C(C)(C)C)c1` [compound 59, 3-(3,5-Ditert-butyl-4-hydroxyphenyl)-2,2-dimethylpropanal], the EC50 was 928 nM. For the molecule `Brc1ccc(NC2C3CC4CC(C3)CC2C4)cc1` (centres unmarked) [compound 60, bromantane], the EC50 is 429 nM. `COc1cc2c(cc1O)C(CCc1ccc(Cl)cc1)N(C)CC2` (centres unmarked) [compound 61, Ro 04-5595]: the EC50 is 652 nM.

Turning to `COc1ccc2c(c1)CN(C)CC2c1ccc(Cl)c(Cl)c1` (centres unmarked) [compound 62, Diclofensine], the 50% effective concentration (EC50) was found to be 3850 nM. The same measure, in the same setting: next, `CO[C@H]1/C=C/O[C@@]2(C)Oc3c(C)c(O)c4c(O)c(c5c(nc6cc(C)ccn65)c4c3C2=O)NC(=O)/C(C)=C\C=C\[C@H](C)[C@H](O)[C@@H](C)[C@@H](O)[C@@H](C)[C@H](OC(C)=O)[C@@H]1C` [compound 64, rifaximin]: 708 nM; `CC(C)(C)CC(C)(C)c1ccc(O)c(Cc2ccc(Cl)cc2Cl)c1` [compound 65, clofoctol]: 2230 nM.

Still in this experiment, the particulars now being: RAG01 cell line; 72 hours incubation; CellTiter-Glo; percentage effect normalized to vehicle control; 10-point CRC from 10 μM; read-out: EC50.
`NC[C@@H]1O[C@H](C23CC4CC(CC(C4)C2)C3)Cc2c1ccc(O)c2O` [compound 39, A77636]: the EC50 came to 652 nM.
